Patent US20180008612A1 (priority 2016, published 2018)
Values joined by “and” are separate entries in the source; they are usually repeats but may differ in a detail not shown here. Equal values may be shown once. Read-outs that look alike come from different tables or passages of the source.

Experiments:
[1] = Antioxidant effect on galantamine stability under normal and stress conditions; format: physicochemical
[2] = Skin permeation, Franz diffusion cells; format: in vitro ADME, human; conditions: for Enhancement Ratio: human
Experimental: The flux can be measured with a standard procedure using Franz diffusion cells, and the experiments were done on human cadaver skin. With Franz cells, in each Franz diffusion cell a disc (diameter of 25 mm) of human cadaver skin is placed on the receptor compartment. A transdermal delivery system is cut the same size as the skin and placed over the diffusion area in the center of the receptor. The donor compartment is then added and clamped to the assembly. At time 0, receptor medium solution 14 mL is added into the receptor compartment and the cell maintained at 32° C. Samples of the receptor compartment are taken periodically to determine the skin flux and analyzed by HPLC.
Skin permeation of various formulations were tested. The results are provided in FIGS. 1, and 2 and Tables 5 and 6. Higher the amount of the galantamine in the adhesives will increase the penetration, but when over the saturation point, the transdermal system will crystalize, and result a low penetration rate.
When adding an enhancer, it might improve the penetration rate. […] When increase the amount of the enhancer, it might not improve the penetration rate.
A co-solvent helps dissolving the drug in the adhesive but it might also help with the penetration rate.

[3] = galantamine with the antioxidant (label), 25′C
[4] = galantamine with the antioxidant (label), 80′C-4 D
[5] = galantamine with the antioxidant (label), 60′C-14 D
[6] = galantamine with the antioxidant (label), 80′C-1 D

| Compound | Total Impurity Amount % [1, 3] [%] | Total Impurity Amount % [1, 4] [%] | Total Impurity Amount % [1, 5] [%] | Total Impurity Amount % [1, 6] [%] | other results |
| --- | --- | --- | --- | --- | --- |
| O=S([O-])([O-])=S.[Na+].[Na+] [Sodium Thiosulfate, sodium thiosulfate] |  |  |  |  | Total Impurity Amount % [1]: 0.13% and 1.02% and 0.67% and 2.20% |
| vitamin E | 0.12 | 1.77 |  |  | Total Impurity Amount % [1]: 0.84% and 0.69% |
| CCOCCOCCO [Transcutol P, diethylene glycol monoethyl ether] |  |  |  |  | penetration rate [2]: improves the penetration rate; Enhancement Ratio ([2]; 5 %): 5; Enhancement Ratio ([2]; 5 % w/w): 4 |
| O=S([O-])[O-].[Na+].[Na+] [Sodium Sulfite, sodium sulfite] | 0.14 | 1.69 |  |  | Total Impurity Amount % [1]: 1.04% and 0.74% |
| OCC(O)CS (stereo not shown) [Monothioglycerol, monothioglycerol] | 0.16 | 1.49 | 1.09 | 0.51 |  |
| Cc1cc(C(C)(C)C)c(O)c(C(C)(C)C)c1 [Butylated Hydroxytoluene (BHT), butylated hydroxytoluene] | 0.11 | 1.18 | 0.33 | 0.51 |  |
| CC(O)CO (stereo not shown) [Propylene Glycol, propylene glycol] |  |  |  |  | Enhancement Ratio ([2]; 5 % w/w): 4; Enhancement Ratio ([2]; 10 % w/w): 7 |
| CCCCCCCC/C=C\CCCCCCCC(=O)OCC [Ethyl Oleate, ethyl oleate] |  |  |  |  | Enhancement Ratio ([2]; 3 % w/w): 2 |
| CCCCCCCCCCCCCC(=O)OC(C)C [IPM, isopropyl myristate] |  |  |  |  | Enhancement Ratio ([2]; 3 % w/w): 2; Enhancement Ratio ([2]; 5 % w/w): 1 |
| CCCCCCCC/C=C\CCCCCCCC(=O)O [Oleic Acid, oleic acid] |  |  |  |  | Enhancement Ratio ([2]; 3 % w/w): 1 |
| O=[N+]([O-])C(Br)(CO)CO [Bronopol, bronopol] | 0.18 | 1.82 | 0.81 | 0.69 |  |
| O=S([O-])S(=O)(=O)[O-].[Na+].[Na+] [Sodium metabisulfite, sodium metabisulfite] | 0.17 | 0.93 | 0.45 | 0.14 |  |
| O=S=O [Sulfur Dioxide, sulfur dioxide] | 0.16 | 1.83 | 1.04 | 0.54 |  |
| CCCCCCCCCCCCCCCC(=O)OC[C@H](O)[C@H]1OC(=O)C(O)=C1O [Ascorbyl Palmitate, ascorbyl palmitate] | 0.12 | 1.13 | 0.58 | 0.28 |  |
| O=C1O[C@H]([C@H](O)CO)C(O)=C1O [Erythorbic Acid, erythorbic acid] | 0.50 | 0.87 |  |  | Total Impurity Amount % [1]: 1.35% and 0.74% |
